Columns and labels:
RORγ-LBD = target: T1, RORγ-LBD (Homo sapiens, UniProt P51449); assay: RORγ-Ligand Binding Domain (LBD) TR-FRET Assay; format: biochemical; details: for TR-FRET Assay Max Response: maximum response;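 as to TR-FRET Assay Max Response: 665/615 nm signal ratio set to 100 without ursolic acid or test compound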
T1 construct: made in house; host or cells: SF9 cells (baculovirus); used as diluted lysate
T1 sequence (P51449 269-508 limits assumed): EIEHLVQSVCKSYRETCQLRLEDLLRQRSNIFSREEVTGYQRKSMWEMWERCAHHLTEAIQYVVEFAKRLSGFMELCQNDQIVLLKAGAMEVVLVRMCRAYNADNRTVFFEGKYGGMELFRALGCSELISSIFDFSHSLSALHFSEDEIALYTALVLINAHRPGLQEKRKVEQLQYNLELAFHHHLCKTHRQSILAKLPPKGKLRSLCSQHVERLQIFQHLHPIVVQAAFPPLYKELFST
Procedure, shortened: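 SF9 lysate containing His-RORγ-LBD, ~3 nM final; coactivator peptide biotin-SRC1 LXXLL, 200 nM final; ursolic acid 2 μM final; DMSO 1% final; Tris pH 7.0 buffer with KCl, EDTA, DTT, BSA. TR-FRET format.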

Gal4-RORγ-LBD = target: T2, Gal4-RORγ-LBD (Homo sapiens, UniProt P51449); assay: Gal4-RORγ Luciferase Reporter Assay in HEK-293T Cells; format: cell-based; details: HEK-293 cells; for Gal4-RORγ Assay Max Response: maximum response
T2 construct: expressed in transfected cells
T2 sequence (P51449 269-508 limits assumed): T1 sequence (P51449 269-508 limits assumed)
Procedure, shortened: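 HEK-293 cells were co-transfected with Gal4-RORγ-LBD and a Gal4-luciferase reporter, then exposed overnight at 37 °C to compounds with […] ursolic acid present (0.2% DMSO). Luminescence was read with One-Glo after 10 min at RT, untreated signal was set as 100, and Max Response was taken as the upper plateau of a 4-parameter logistic fit.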

[1] = luciferase reporter, in presence of ursolic acid
[2] = luciferase reporter, with ursolic acid

Structure (SMILES)	EC50 (RORγ-LBD; RORγ-LBD TR-FRET)	EC50 (Gal4-RORγ-LBD; [2])	further results
C/C(=C\c1ccc2c(c1)N(S(=O)(=O)c1cccc(C(F)(F)F)c1)C[C@H](CCN1CCCC1)O2)c1c(F)cccc1Cl [Example 118, (S,E)-6-(2-(2-Chloro-6-fluorophenyl)prop-1-en-1-yl)-2-(2-(pyrrolidin-1-yl)ethyl)-4-((3-(trifluoromethyl)phenyl)sulfonyl)-3,4-dihydro-2H-benzo[b][1,4]oxazine]			EC50 (RORγ-LBD; RORγ-LBD TR-FRET assay): < 500 nM; EC50 (Gal4-RORγ-LBD; [1]): 500 to 5000 nM
CCn1cc(S(=O)(=O)N2C[C@H](CCC(=O)O)Oc3ccc(/C=C(\C)c4c(F)cccc4Cl)cc32)c(Cl)n1 [Example 86G, (S,E)-3-(4-((3-chloro-1-ethyl-1H-pyrazol-4-yl)sulfonyl)-6-(2-(2-chloro-6-fluorophenyl)prop-1-en-1-yl)-3,4-dihydro-2H-benzo[b][1,4]oxazin-2-yl)propanoic acid]	< 500 nM	500 to 5000 nM	
COC(=O)CC[C@H]1CN(S(=O)(=O)c2cccc(OC(F)(F)F)c2)c2cc(/C=C(\C)c3c(F)cccc3Cl)ccc2O1 [Example 86T, (S,E)-methyl 3-(6-(2-(2-chloro-6-fluorophenyl)prop-1-en-1-yl)-4-((3-(trifluoromethoxy)phenyl)-sulfonyl)-3,4-dihydro-2H-benzo[b][1,4]oxazin-2-yl)propanoate]	< 500 nM	500 to 5000 nM	
COc1cc(S(=O)(=O)N2C[C@H](CC(C)(C)C(=O)O)Cc3ccc(OCc4c(F)cccc4Cl)cc32)ccc1F [Example 27, (S)-3-(7-((2-Chloro-6-fluorobenzyl)oxy)-1-((4-fluoro-3-methoxyphenyl)sulfonyl)-1,2,3,4-tetrahydroquinolin-3-yl)-2,2-dimethylpropanoic acid]	< 500 nM	< 500 nM	
C/C(=C\c1ccc2c(c1)N(S(=O)(=O)c1cccc(C(F)(F)F)c1)C[C@@H](NC(=O)C(C)(C)O)C2)c1c(F)cccc1Cl [Example 116G, (S,E)-N-(7-(2-(2-chloro-6-fluorophenyl)prop-1-en-1-yl)-1-((3-(trifluoromethyl)-phenyl)sulfonyl)-1,2,3,4-tetrahydroquinolin-3-yl)-2-hydroxy-2-methylpropanamide]			EC50 (RORγ-LBD; RORγ-LBD TR-FRET assay): < 500 nM; TR-FRET Assay Max Response (RORγ-LBD; RORγ-LBD TR-FRET assay): *** (a value in the range of greater than 150 to 200); EC50 (Gal4-RORγ-LBD; [1]): < 500 nM; Gal4-RORγ Assay Max Response (Gal4-RORγ-LBD; [1]): * (a value in the range of 30 to 90)
O=S(=O)(c1cccc(C(F)(F)F)c1)N1CCCc2cc(OCc3c(F)cccc3Cl)ccc21 [Example 25J, 6-((2-chloro-6-fluorobenzyl)oxy)-1-((3-(trifluoromethyl)phenyl)sulfonyl)-1,2,3,4-tetrahydroquinoline]	< 500 nM	500 to 5000 nM	
CCOC(=O)[C@@H]1Cc2ccc(OC3CCc4ccccc43)cc2N(S(=O)(=O)c2ccc(F)c(OC)c2)[C@@H]1C (mixture of isomers) [Example 20, (2R,3R)-Ethyl 7-((2,3-dihydro-1H-inden-1-yl)oxy)-1-((4-fluoro-3-methoxyphenyl)sulfonyl)-2-methyl-1,2,3,4-tetrahydroquinoline-3-carboxylate]	< 500 nM	< 500 nM	
C[C@@H]1[C@H](O)Cc2ccc(/C=C/c3c(F)cccc3Cl)cc2N1S(=O)(=O)c1cccc(C(F)(F)F)c1 (racemic) [Example 170, (2R,3R)-7-((E)-2-Chloro-6-fluorostyryl)-2-methyl-1-((3-(trifluoromethyl)phenyl)sulfonyl)-1,2,3,4-tetrahydroquinolin-3-ol]			EC50 (RORγ-LBD; RORγ-LBD TR-FRET assay): < 500 nM; TR-FRET Assay Max Response (RORγ-LBD; RORγ-LBD TR-FRET assay): *** (a value in the range of greater than 150 to 200); EC50 (Gal4-RORγ-LBD; [1]): 500 to 5000 nM; Gal4-RORγ Assay Max Response (Gal4-RORγ-LBD; [1]): *** (a value in the range of greater than 150 to 200)
O=C(O)CC[C@H]1CN(S(=O)(=O)c2cccc(C(F)(F)F)c2)c2cc(/C=C/c3c(Cl)cc(F)cc3Cl)ccc2O1 [Example 89CM, (S,E)-3-(6-(2,6-dichloro-4-fluorostyryl)-4-((3-(trifluoromethyl)phenyl)sulfonyl)-3,4-dihydro-2H-benzo[b][1,4]-oxazin-2-yl)propanoic acid]	< 500 nM	500 to 5000 nM	
COc1cccc(C(F)(F)F)c1/C=C/c1ccc2c(c1)N(S(=O)(=O)c1cccc(C(F)(F)F)c1)C[C@H](CCC(=O)O)O2 [Example 89ER, (S,E)-3-(6-(2-methoxy-6-(trifluoromethyl)styryl)-4-((3-(trifluoromethyl)phenyl)-sulfonyl)-3,4-dihydro-2H-benzo[b][1,4]oxazin-2-yl)propanoic acid]	< 500 nM	< 500 nM	
O=C(O)CC[C@H]1CN(S(=O)(=O)c2cccc(C(F)(F)F)c2)c2cc(/C=C3/CCCOC3)ccc2O1 [Example 95J, (S,Z)-3-(6-((dihydro-2H-pyran-3(4H)-ylidene)methyl)-4-((3-(trifluoromethyl)phenyl)sulfonyl)-3,4-dihydro-2H-benzo[b][1,4]oxazin-2-yl)propanoic acid]	< 500 nM	500 to 5000 nM	
C/C(=C\c1ccc2c(c1)N(S(=O)(=O)c1ccc(F)c(Cl)c1)C[C@H](CCC(=O)O)O2)c1c(F)cccc1Cl [Example 86E, (S,E)-3-(4-((3-chloro-4-fluorophenyl)sulfonyl)-6-(2-(2-chloro-6-fluorophenyl)prop-1-en-1-yl)-3,4-dihydro-2H-benzo[b][1,4]oxazin-2-yl)propanoic acid]	< 500 nM	500 to 5000 nM	
COC(=O)CC[C@H]1CN(S(=O)(=O)c2cccc(C(C)(F)F)c2)c2cc(/C=C/c3c(Cl)cccc3C(F)(F)F)ccc2O1 [Example 83, Methyl (S,E)-3-(6-(2-chloro-6-(trifluoromethyl)styryl)-4-((3-(1,1-difluoroethyl)phenyl)sulfonyl)-3,4-dihydro-2H-benzo[b][1,4]oxazin-2-yl)propanoate]	< 500 nM	500 to 5000 nM	
CCOc1nn(CC)cc1S(=O)(=O)N1C[C@H](CCC(=O)OC)Oc2ccc(/C=C/c3ncccc3Cl)cc21 [Example 89DJ, methyl (S,E)-3-(6-(2-(3-chloropyridin-2-yl)vinyl)-4-((3-ethoxy-1-ethyl-1H-pyrazol-4-yl)sulfonyl)-3,4-dihydro-2H-benzo[b][1,4]oxazin-2-yl)propanoate]	< 500 nM	500 to 5000 nM	
CC(F)(F)c1cccc(Cl)c1/C=C/c1ccc2c(c1)N(S(=O)(=O)c1cc(C(F)(F)F)cnc1OCCO)C[C@H](CCC(=O)O)O2 [Example 89FI, (S,E)-3-(6-(2-chloro-6-(1,1-difluoroethyl)styryl)-4-((2-(2-hydroxyethoxy)-5-(trifluoromethyl)pyridin-3-yl)sulfonyl)-3,4-dihydro-2H-benzo[b][1,4]-oxazin-2-yl)propanoic acid]	< 500 nM	< 500 nM	
COC(=O)CC[C@H]1CN(S(=O)(=O)c2cccc(C(F)(F)F)c2)c2cc(/C=C(\C)c3ccccc3Cl)ccc2O1 [Example 86Z, (S,E)-methyl 3-(6-(2-(2-chlorophenyl)prop-1-en-1-yl)-4-((3-(trifluoromethyl)phenyl)-sulfonyl)-3,4-dihydro-2H-benzo[b][1,4]oxazin-2-yl)propanoate]	< 500 nM	< 500 nM	
C/C(=C\c1ccc2c(c1)N(S(=O)(=O)c1cccc(C(F)(F)F)c1)CCS2)c1c(F)cccc1Cl [Example 187, (E)-6-(2-(2-Chloro-6-fluorophenyl)prop-1-en-1-yl)-4-((3-(trifluoromethyl)phenyl)sulfonyl)-3,4-dihydro-2H-benzo[b][1,4]thiazine]			EC50 (RORγ-LBD; RORγ-LBD TR-FRET assay): < 500 nM; TR-FRET Assay Max Response (RORγ-LBD; RORγ-LBD TR-FRET assay): **** (a value greater than 200); EC50 (Gal4-RORγ-LBD; [1]): < 500 nM; Gal4-RORγ Assay Max Response (Gal4-RORγ-LBD; [1]): ** (a value in the range of greater than 90 to 150)
CCOc1nn(CC)cc1S(=O)(=O)N1C[C@H](CCC(=O)O)Oc2ccc(/C=C/c3c(F)cccc3F)cc21 [Example 89AE, (S,E)-3-(6-(2,6-difluorostyryl)-4-((3-ethoxy-1-ethyl-1H-pyrazol-4-yl)sulfonyl)-3,4-dihydro-2H-benzo[b][1,4]-oxazin-2-yl)propanoic acid]	< 500 nM	500 to 5000 nM	
N#CCC[C@H]1CN(S(=O)(=O)c2cccc(C(F)(F)F)c2)c2cc(CCc3c(F)cccc3Cl)ccc2O1			EC50 (RORγ-LBD; with 2 μM ursolic acid (RORγ antagonist), highest test concentration 10 μM): < 500 nM; EC50 (Gal4-RORγ-LBD; ursolic acid present, luciferase readout): < 500 nM
C/C(=C\c1ccc2c(c1)N(S(=O)(=O)c1cccc(C(F)(F)F)c1)CCC2=O)c1c(F)cccc1Cl [Example 188, (E)-7-(2-(2-chloro-6-fluorophenyl)prop-1-en-1-yl)-1-((3-(trifluoromethyl)phenyl)sulfonyl)-2,3-dihydroquinolin-4(1H)-one]			EC50 (RORγ-LBD; RORγ-LBD TR-FRET assay): < 500 nM; TR-FRET Assay Max Response (RORγ-LBD; RORγ-LBD TR-FRET assay): **** (a value greater than 200); EC50 (Gal4-RORγ-LBD; [1]): 500 to 5000 nM; Gal4-RORγ Assay Max Response (Gal4-RORγ-LBD; [1]): ** (a value in the range of greater than 90 to 150)
O=C(O)C1Cc2ccc(/C=C/c3c(Cl)cccc3C(F)(F)F)cc2N(S(=O)(=O)c2cccc(C(F)(F)F)c2)C1 (centres unmarked) [Example 15D, (E)-7-(2-chloro-6-(trifluoromethyl)styryl)-1-((3-(trifluoromethyl)phenyl)sulfonyl)-1,2,3,4-tetrahydroquinoline-3-carboxylic acid]	< 500 nM	500 to 5000 nM	
